Legend:
[1] = system: VRSA 52 biofilm; assay type: cell-based, S. aureus; details: 4 µM, 48 h, crystal violet, OD595
Method: (§1) The mixture was incubated in a 96‐well plate for 48 h. Subsequent steps, including washing, fixation, staining, and OD measurement, were performed as described in the biofilm eradication assay.

[2] = system: MDR K. pneumoniae 3; details: MH broth, 37 °C, 18 h, OD600
[3] = system: P. aeruginosa 60357; assay: MIC, 2 fold broth microdilution; assay type: cell-based; details: MH broth, 37 °C, 18 h, OD600
Method: (§2) The 2 fold broth microdilution method was performed following previously established protocols.^[ [65], [66] ^] A total of 29 strains of human pathogenic microorganisms (11 Gram‐positive and 18 Gram‐negative) were included in the assay. Standard strains were maintained in our laboratory, and clinical isolates were obtained from the Fourth Affiliated Hospital of Soochow University. […] Gradient dilutions of the drugs (vancomycin, AMPs, and vancomycin‐AMP conjugates) were prepared in 96‐well plates, with 50 µL of each drug solution added per well. For the vancomycin and AMP mixture, 25 µL of vancomycin was combined with 25 µL of AMP at the corresponding monomer gradient concentration, resulting in a total volume of 50 µL. […] Following incubation, bacterial growth was assessed by measuring absorbance at 600 nm. The MIC was defined as the lowest concentration at which no bacterial growth was detected.

[4] = system: S. flexneri ATCC12022; assay: MIC, 2 fold broth microdilution; assay type: cell-based; details: MH broth, 37 °C, 18 h, OD600
Method: as §2

[5] = system: S. flexneri CMCC51571; assay: MIC, 2 fold broth microdilution; assay type: cell-based; details: MH broth, 37 °C, 18 h, OD600
Method: as §2

[6] = system: S. typhimurium CICC21483; assay: MIC, 2 fold broth microdilution; assay type: cell-based; details: MH broth, 37 °C, 18 h, OD600
Method: as §2

[7] = system: P. aeruginosa 52097; assay: MIC, 2 fold broth microdilution; assay type: cell-based; details: MH broth, 37 °C, 18 h, OD600
Method: as §2

[8] = system: P. aeruginosa CMCC10104; assay: MIC, 2 fold broth microdilution; assay type: cell-based; details: MH broth, 37 °C, 18 h, OD600
Method: as §2

[9] = system: V. parahemolyticus ATCC17802; assay: MIC, 2 fold broth microdilution; assay type: cell-based; details: MH broth, 37 °C, 18 h, OD600
Method: as §2

[10] = system: B. cereus CMCC63301; assay: MIC, 2 fold broth microdilution; assay type: cell-based; details: MH broth, 37 °C, 18 h, OD600
Method: as §2

[11] = system: E. coli ATCC25922 biofilm; assay type: cell-based; details: 4 µM, 48 h, crystal violet, OD595
Method: as §1

[12] = system: MDR P. aeruginosa 5 biofilm; assay type: cell-based; details: 4 µM, 48 h, crystal violet, OD595
Method: as §1

[13] = system: E. coli CMCC44102; details: E. coli CMCC44102; MH broth, 37 °C, 18 h, OD600
[14] = system: MDR K. pneumoniae 2; details: MH broth, 37 °C, 18 h, OD600
[15] = system: human erythrocytes; assay: Hemolytic activity assay; assay type: cell-based; details: 32 µM; human blood cells, 37 °C, 30 min, A540, 1% Triton X‐100 positive control
[16] = system: C. perfringens ATCC13124; details: MH broth, 37 °C, 18 h, OD600
[17] = system: MDR P. aeruginosa 5; details: MDR P. aeruginosa 5; MH broth, 37 °C, 18 h, OD600
[18] = system: E. coli ATCC25922 biofilms; details: 8 µM, 4 h, SYTO9/PI CLSM
[19] = system: E. faecalis 2; details: E. faecalis 2; MH broth, 37 °C, 18 h, OD600
[20] = system: MDR A. baumannii 1; details: MH broth, 37 °C, 18 h, OD600
[21] = system: S. aureus CMCC26003 biofilm; assay: Biofilm inhibition, crystal violet; assay type: cell-based; details: 4 µM, 48 h, OD595
Method: as §1

[22] = system: VRSA 52 biofilms; details: 8 µM, 4 h, SYTO9/PI CLSM
[23] = system: 29 bacterial strains (11 Gram‐positive, 18 Gram‐negative); assay: GM of the MICs across the 29 bacterial strains; assay type: cell-based; details: MIC values exceeding 100 µg mL^−1 defaulted to 100 µg mL^−1
Method: as §2

[24] = system: MDR K. pneumoniae 4; details: MH broth, 37 °C, 18 h, OD600
[25] = system: E. coli ATCC25922; assay: Live/dead bacteria staining (PI/SYTO9, CLSM); assay type: cell-based; details: 4 µM, 1 h

CC[C@H](C)[C@H](NC(=O)CNC(=O)[C@@H](N)CSC1CC(=O)N(CC2CCC(C(=O)N(C)[C@H](CC(C)C)C(=O)N[C@H]3C(=O)N[C@@H](CC(N)=O)C(=O)N[C@H]4C(=O)N[C@H]5C(=O)N[C@H](C(=O)N[C@H](C(=O)O)c6cc(O)cc(O)c6-c6cc5ccc6O)[C@H](O)c5ccc(c(Cl)c5)Oc5cc4cc(c5O[C@@H]4O[C@H](CO)[C@@H](O)[C@H](O)[C@H]4O[C@H]4C[C@](C)(N)[C@H](O)[C@H](C)O4)Oc4ccc(cc4Cl)[C@H]3O)CC2)C1=O)C(=O)NCC(=O)N[C@@H](CCCCN)C(=O)N[C@@H](Cc1ccccc1)C(=O)N[C@@H](CC(C)C)C(=O)N[C@@H](CCCCN)C(=O)N[C@@H](CCCCN)C(=O)N[C@@H](C)C(=O)N[C@@H](CCCCN)C(=O)N[C@@H](CCCCN)C(=O)N[C@@H](Cc1ccccc1)C(=O)NCC(=O)N[C@@H](CCCCN)C(=O)N[C@@H](C)C(=O)N[C@@H](Cc1ccccc1)C(=O)N[C@H](C(=O)N[C@@H](CCCCN)C(=O)N[C@H](C(=O)N[C@@H](CC(C)C)C(=O)N[C@@H](CCCCN)C(=O)N[C@@H](CCCCN)C(N)=O)[C@@H](C)CC)C(C)C (stereo partly drawn) [Vm‐MSI]
biofilm formation inhibited [1]: 60%
MIC [2]: 2.21(9.38) µM
MIC [3]: 2.21(9.38) µM
MIC [4]: 1.10(4.69) µM
MIC [5]: 2.21(9.38) µM
MIC [6]: 4.42(18.75) µM
MIC [7]: 2.21(9.38) µM
MIC [8]: 4.42(18.75) µM
MIC [9]: 8.84(37.5) µM
MIC [10]: 2.21(9.38) µM
biofilm formation inhibited [11]: 60%
biofilm formation inhibited [12]: 50%
MIC [13]: 2.21(9.38) µM
MIC [14]: 4.42(18.75) µM
hemolysis [15]: 10%
MIC [16]: 2.21(9.38) µM
MIC [17]: 2.21(9.38) µM
killing at the bottom of the biofilm [18]: more than 75%
MIC [19]: 4.42(18.75) µM
MIC [20]: 1.10(4.69) µM
biofilm formation inhibited [21]: 80%
killing in the bottom layer of the biofilm [22]: 50%
killing in the middle layer of the biofilm [22]: 60%
killing in the surface layer of the biofilm (dead cells) [22]: 95%
GM: Geometric mean of the MICs across the 29 bacterial strains [23]: 2.60(11.03) µM
MIC [24]: 4.42(18.75) µM
bacteria killed (mortality) [25]: over 80%

— paper PMC12931196, “Vm–MSI: a Vancomycin–Antimicrobial Peptide Conjugate Combating Resistant Bacteria and Broadening the Antimicrobial Spectrum” (Advanced Science, 2025)
